Assay results from patent US8642657B2 (Gruenenthal GmbH, priority 2003, dated 2014).
Read-outs that look alike come from different tables or passages of the source.

Assays:
rat VR1 = target: T1, rat VR1 (Rattus norvegicus, UniProt O35433); experiment: [3H]resiniferatoxin (RTX) competition binding assay, VR1-transfected CHO cells
T1 construct: expressed in transfected cells
Experimental: The pUHG102 VR1 plasmid was transfected into CHO cells containing the pTet Off regulatory plasmid (Clontech). In these cells, expression of the VR1 is repressed in the presence of tetracycline but is induced upon removal of the antibiotic. Stable clones were isolated in culture medium containing puromycin (10 μg/mL) and maintained in HAM F12 medium supplemented with tetracycline (1 μg/mL), 5 μg/ml geniticin, 25 mM HEPES, 10% FBS. Cells utilized for assays were grown in culture medium without antibiotic for 48 h before use. Cells were seeded in T75 cell culture flasks in media without antibiotics and grown to approximately 90% confluence. The flasks were then washed with PBS and harvested in 0.25% trypsin, 1 mM EDTA. The cells were pelleted by gentle centrifugation and stored at −20° C. until assay.
Competition Binding Assay
Binding studies with [^3H]resiniferatoxin (RTX) were carried out as described previously with minor modifications (Szallasi et al., 1992). Binding assay mixtures were set up on ice and contained 50-100 pM [^3H]RTX, various concentrations of competing ligands, 0.25 mg/mL BSA (Cohn fraction V), and about 5×10^5 VR1-transfected cells. The final volume was adjusted to 350 μL with DPBS with Ca^2+ and Mg^2+ and 0.25 mg/mL bovine serum albumin. Non-specific binding was determined in the presence of 100 nM nonradioactive RTX. The binding reaction was initiated by transferring the assay mixtures to a 37° C. water bath and was terminated after a 60 min incubation period by cooling the tubes on ice. To reduce non-specific binding, 200 μg/ml α-glycoprotein was added. Membrane-bound RTX was then separated from the free by pelleting the membranes in a Beckman 12 benchtop centrifuge (15 min, maximal velocity), the tips of the tubes containing the pellets were cut off, and the radioactivity was determined by scintillation counting. Equilibrium binding parameters (Ki and cooperativity) were determined by fitting the Hill equation to the measured values with the aid of the program MicroCal Origin 6.0.
Initial stocks were dissolved in DMSO. For the binding assays, compounds were diluted in with DPBS with Ca^2+ and Mg^2+ and 0.25 mg/mL bovine serum albumin. For the calcium uptake assays, compounds were diluted in DMEM with 0.25 mg/mL bovine serum albumin.

[1] = competition with [3H]RTX, rat VR1 in CHO cells, read-out: Ki (nM) Binding Affinity

T1 sequence (O35433 whole entry): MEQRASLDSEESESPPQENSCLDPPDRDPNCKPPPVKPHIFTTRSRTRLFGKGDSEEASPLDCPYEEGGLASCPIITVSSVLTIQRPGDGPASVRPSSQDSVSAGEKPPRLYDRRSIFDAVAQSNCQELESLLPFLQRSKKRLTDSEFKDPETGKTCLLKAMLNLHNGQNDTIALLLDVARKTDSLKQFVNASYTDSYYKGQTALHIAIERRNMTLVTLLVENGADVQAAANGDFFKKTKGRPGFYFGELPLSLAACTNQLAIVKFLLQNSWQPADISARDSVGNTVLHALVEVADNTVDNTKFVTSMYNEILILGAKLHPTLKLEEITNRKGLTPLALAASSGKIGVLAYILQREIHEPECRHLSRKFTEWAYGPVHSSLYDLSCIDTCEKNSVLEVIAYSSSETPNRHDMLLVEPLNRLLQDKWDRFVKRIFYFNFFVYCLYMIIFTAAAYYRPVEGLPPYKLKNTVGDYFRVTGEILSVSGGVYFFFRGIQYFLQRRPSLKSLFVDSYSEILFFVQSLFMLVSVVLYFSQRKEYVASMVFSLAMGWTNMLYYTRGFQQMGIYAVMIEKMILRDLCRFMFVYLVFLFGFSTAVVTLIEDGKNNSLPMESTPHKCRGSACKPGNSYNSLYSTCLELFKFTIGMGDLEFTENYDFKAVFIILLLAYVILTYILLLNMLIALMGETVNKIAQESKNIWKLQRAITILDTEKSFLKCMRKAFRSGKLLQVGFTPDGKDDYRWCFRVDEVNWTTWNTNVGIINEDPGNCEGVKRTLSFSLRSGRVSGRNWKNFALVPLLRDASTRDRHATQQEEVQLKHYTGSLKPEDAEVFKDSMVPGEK

Compound	melting point	Ki (rat VR1; [1])	Ki (rat VR1)
CC(C(=O)NOCc1ccccc1)c1ccc(NS(C)(=O)=O)c(F)c1 (stereo not drawn) [4-21, N-Benzyloxy-2-[3-fluoro-4-(methylsulfonylamino)phenyl]propionamide]	182 to 183 °C	9420 nM	
CC(C(=O)NCc1ccc(C(C)(C)C)cc1)c1ccc(NS(C)(=O)=O)c(C(=O)OC(C)(C)C)c1 (stereo not drawn) [1-57, N-(4-tert-Butylbenzyl)-2-[3-(t-butoxycarbonyl)-4-(methylsulfonylamino)phenyl]propionamide]	75 to 77 °C	6730 nM	
Cc1ccc(C=CCNC(=O)C(C)c2ccc(NS(C)(=O)=O)c(F)c2)cc1C (stereo not drawn) [4-18, N-[3-(3,4-Dimethylphenyl)-2-propenyl]-2-[3-fluoro-4-(methylsulfonylamino)phenyl]propionamide]	144 to 146 °C		
CC(C(=O)NCc1ccc(C(C)(C)C)cc1)c1ccc(NS(C)(=O)=O)c(C(=O)NCc2ccccc2)c1 (stereo not drawn) [1-60, N-(4-tert-Butylbenzyl)-2-[3-(benzylamino)carbonyl-4-(methylsulfonylamino)phenyl]propionamide]	79 to 81 °C	3710 nM	
CC(C(=O)NC(c1ccccc1)c1ccccc1)c1ccc(NS(C)(=O)=O)c(F)c1 (stereo not drawn) [4-22, N-Benzhydryl-2-[3-fluoro-4-(methylsulfonylamino)phenyl]propionamide]	160 to 161 °C	5860 nM	
CC(C(=O)NCc1ccc(C(C)(C)C)cc1)c1ccc(NS(C)(=O)=O)c(N2CCOCC2)c1 (stereo not drawn) [1-62, N-(4-tert-Butylbenzyl)-2-[3-morpholino-4-(methylsulfonylamino)phenyl]propionamide]	78 °C		
CC(NC(=S)NC(COC(=O)C(C)(C)C)Cc1ccccc1)c1ccc(NS(C)(=O)=O)cc1 [19-15, N-[(2R)-3-phenyl-1-pivaloyloxy-2-propyl]-N′-[(S)-α-methyl-4-(methylsulfonylamino)benzy]thiourea]	61 to 64 °C		
CC(C(=O)NCC=Cc1ccc(Cl)cc1)c1ccc(NS(C)(=O)=O)c(F)c1 (stereo not drawn) [4-20, N-[3-(4-Chlorophenyl)-2-propenyl]-2-[3-fluoro-4-(methylsulfonylamino)phenyl]propionamide]	151 to 153 °C		
C[C@H](C(=O)N[C@H](COC(=O)C(C)(C)C)Cc1ccccc1)c1ccc(NS(C)(=O)=O)c(F)c1 [6-2, N—[(S)-1-Benzyl-2-(pivaloyloxy)ethyl]-(S)-2-[3-fluoro-4-(methylsulfonylamino)phenyl]propionamide]	125 to 126 °C		
CC(C(=O)NCc1ccc(C(C)(C)C)cc1)c1ccc(NS(C)(=O)=O)c(N2CCN(C(=O)OC(C)(C)C)CC2)c1 (stereo not drawn) [1-63, N-(4-tert-Butylbenzyl)-2-[3-(N-boc)piperazino-4-(methylsulfonylamino)phenyl]propionamide]	103 °C		
Cc1ccc(CCCNC(=O)C2(c3ccc(NS(C)(=O)=O)c(F)c3)CC2)cc1C [12-5, N-[3-(3,4-Dimethylphenyl)propyl]-1-[3-fluoro-4-(methylsulfonylamino)phenyl]cyclopropanecarboxamide]	127 to 128 °C		
CC(C(=O)NC1CCCc2ccccc21)c1ccc(NS(C)(=O)=O)c(F)c1 (stereo not drawn) [4-13, N-(1,2,3,4-Tetrahydro-1-naphthalenyl)-2-[3-fluoro-4-(methylsulfonylamino)phenyl]propionamide]	116 to 117 °C		
CC(NC(=S)NCc1ccc(C(C)(C)C)cc1)c1ccc(NS(C)(=O)=O)c(C(=O)O)c1 (stereo not drawn) [15-5, N-(4-t-Butylbenzyl)-N′-{1-[3-carboxy-4-(methylsulfonylamino)phenyl]ethyl}thiourea]	189 to 192 °C		2770 nM
CC(C(=O)NCC=C(c1ccccc1)c1ccccc1)c1ccc(NS(C)(=O)=O)c(F)c1 (stereo not drawn) [4-25, N-(3,3-Diphenyl-2-propenyl)-2-[3-fluoro-4-(methylsulfonylamino)phenyl]propionamide]	155 to 157 °C		
Cc1ccc(CNC(=O)C(C)c2ccc(NS(C)(=O)=O)c(F)c2)cc1 (stereo not drawn) [4-7, N-(4-Methylbenzyl)-2-[3-fluoro-4-(methylsulfonylamino)phenyl]propionamide]	166 °C		
CC(C(=O)NCCCc1ccc(Cl)cc1)c1ccc(NS(C)(=O)=O)c(F)c1 (stereo not drawn) [4-19, N-[3-(4-Chlorophenyl)propyl]-2-[3-fluoro-4-(methylsulfonylamino)phenyl]propionamide]	141 to 143 °C		
CC(C(=O)NCc1ccc(C(C)(C)C)cc1)c1ccc(NS(C)(=O)=O)c(N2CCNCC2)c1 (stereo not drawn) [1-64, N-(4-tert-Butylbenzyl)-2-[3-piperazino-4-(methylsulfonylamino)phenyl]propionamide]	92 °C		
COc1cc(C(C)C(=O)NCC(COC(=O)C(C)(C)C)Cc2ccc(C(C)(C)C)cc2)ccc1NS(C)(=O)=O (stereo not drawn) [5-6, N-[2-(4-tert-Butylbenzyl)-3-pivaloyloxypropyl]-2-[3-methoxy-4-(methylsulfonylamino)phenyl]propionamide]	54 to 57 °C	24 nM	
CC(C(=O)NCc1ccc(C(C)(C)C)cc1)c1ccc(NS(C)(=O)=O)c(N2CCCCC2)c1 (stereo not drawn) [1-61, N-(4-tert-Butylbenzyl)-2-[3-piperidino-4-(methylsulfonylamino)phenyl]propionamide]	125 °C		
CC(NC(=O)C=Cc1ccc(C(C)(C)C)cc1)c1ccc(NS(C)(=O)=O)c(F)c1 (stereo not drawn) [24-3, N-{1-[3-Fluoro-4-(methylsulfonylamino)phenyl]ethyl}-3-(4-tert-butylphenyl)-2-propenamide]	154 to 156 °C		
C[C@H](NC(=S)NCc1ccc(C(C)(C)C)cc1)c1ccc(NS(C)(=O)=O)cc1 [16-6, N-(4-t-Butylbenzyl)-N′-{(1S)-1-[4-(methylsulfonylamino)phenyl]ethyl}thiourea]	101 °C		3590 nM
CC(C(=O)NCc1ccc(C(C)(C)C)cc1)c1ccc(NS(C)(=O)=O)c(C(=O)O)c1 (stereo not drawn) [1-58, N-(4-tert-Butylbenzyl)-2-[3-carboxyl-4-(methylsulfonylamino)phenyl]propionamide]	180 to 183 °C		
CC(C)(C)c1ccc(CNC(=O)C2(c3ccc(NS(C)(=O)=O)c(F)c3)CC2)cc1 [12-8, N-(4-tert-Butylbenzyl)-1-[3-fluoro-4-(methylsulfonylamino)phenyl]cyclopropanecarboxamide]	200 to 203 °C		
